Reference: PubChem BioAssay AID1963983 (Molecular Pharmacology Branch, DTP, NCI, 2024)
One block for each molecule: values may come before it.

Test system: 186277-243-T-J2-PDC multi-cell spheroid viability
Experiment: Anticancer human tumor 186277-243-T-J2-PDC patient-derived colon adenocarcinoma cell line growth inhibition [PI3K]
Settings: for IC50: curve of first compound; for viability, T/C: stronger effect = lower value
From the text: Combinatorial screen of targeted agents with the PI3K inhibitors inavolisib, alpelisib, duvelisib, and copanlisib in multi-cell type tumor spheroids
A high-throughput screen of multi-cell type tumor spheroids was designed to identify active combinations of targeted small molecules and PI3K pathway inhibitors. Complex spheroids include a stromal component modeled by human endothelial cells (HUVEC) and fibroblasts modeled by human mesenchymal stem cells (MSCs). The concentration ranges selected for each drug and investigational agent were based upon clinically achievable concentrations if the clinical Cmax of the agent was known.
Compounds. The drugs and investigational agents: inavolisib (NSC800729), alpelisib (NSC765974), duvelisib (NSC772469), copanlisib (NSC816437), ipatasertib (NSC767898), afuresertib (NSC778305), talazoparib (NSC767125), sapanisertib (NSC764658), selumetinib (NSC741078), tovorafenib (DAY101, NSC766906), vemurafenib (NSC761431), ravoxertinib (NSC781343), sotorasib (NSC818433), MRTX1133 (NSC 836407), abemaciclib (NSC 768073), palbociclib (NSC758247), venetoclax (NSC 766270), SY5609 (NSC837396), enzalutamide (NSC755605), and darolutamide (NSC825331), were obtained from the National Cancer Institute (NCI) Developmental Therapeutics Program Chemical Repository. The FDA-approved anticancer drug set is available from the NCI Developmental Therapeutics Program. […] The stock solutions were prepared in dimethyl sulfoxide (DMSO, Sigma-Aldrich, St. Louis, MO, cat. D2650) at 800-fold the tested concentration and stored at -70 degrees C prior to their use. All drugs and investigational agents were tested over a range starting from a high concentration at or near the clinical Cmax and decreasing in half-log increments. If the clinical Cmax for an agent had not been determined, the highest concentration tested was 10 microM.
Cell Culture. All cells were maintained in an incubator at 37 degrees C and 5% CO2 with 95% humidity. The PDC lines were cultured according to standard operating procedures established by the NCI PDMR (https://pdmr.cancer.gov/sops/default.htm). All PDCs were thawed and cultured in Matrigel-coated flasks prepared with a working solution of 1X Ham's F-12 nutrient mix, without supplementation (Invitrogen, Waltham, MA, cat. 11765054), 100 U/mL penicillin-streptomycin (Invitrogen, cat. 15140122), and 2.5% Matrigel (Corning Inc., Corning, NY, cat. 354248) for the first three passages. The 354836-022-R-J1-PDC, 475296-252-R-J1-PDC, and 997726-040-R-J2-PDC lines were cultured in 6A media, which includes advanced DMEM/F-12 (Thermo Fisher Scientific, cat. 12634028), 10 mM HEPES (Thermo Fisher Scientific, cat. 15630080), 1X GlutaMAX supplement (Thermo Fisher Scientific, cat. 35050061), 0.1 mg/mL primocin (InvivoGen, San Diego, CA, cat. ant-pm-2), 10% defined fetal bovine serum, heat inactivated (HyClone Laboratories Inc., Logan, UT, cat. SH30070.03HI), 50% L-WRN conditioned media (ATCC, cat. CRL-3276), 1.25 mM N-Acetyl-L-cysteine (Sigma-Aldrich, cat. A9165), 10 mM nicotinamide (Sigma-Aldrich, cat. N0636), 1X B-27 supplement (Thermo Fisher Scientific, cat. 17504044), 1X N-2 supplement (Thermo Fisher Scientific, cat. 17502048), and 10 microM Y-27632 dihydrochloride (Tocris Bioscience, Bristol, United Kingdom, cat. 1254). The 624824-186-R-J2-PDC line was cultured in 6C/Colon 1B media, which includes all 6A media components plus 50 ng/mL human EGF recombinant protein (Thermo Fisher Scientific, cat. PHG0311). […]

[1] = second compound 0.00316 µM, first compound 0.0316 µM
[2] = second compound 0.00316 µM, first compound 0.1 µM
[3] = second compound 0.00316 µM, first compound 0.316 µM
[4] = second compound 0.00316 µM, first compound 1 µM
[5] = second compound 0.00316 µM, first compound 3.16 µM
[6] = second compound 0.00316 µM, first compound 10 µM
[7] = second compound 0.01 µM, first compound 0.0316 µM
[8] = second compound 0.01 µM, first compound 0.1 µM
[9] = second compound 0.01 µM, first compound 0.316 µM
[10] = second compound 0.01 µM, first compound 1 µM
[11] = second compound 0.01 µM, first compound 3.16 µM
[12] = second compound 0.01 µM, first compound 10 µM
[13] = second compound 0.0316 µM, first compound 0.0316 µM
[14] = second compound 0.0316 µM, first compound 0.1 µM
[15] = second compound 0.0316 µM, first compound 0.316 µM
[16] = second compound 0.0316 µM, first compound 1 µM
[17] = second compound 0.0316 µM, first compound 3.16 µM
[18] = second compound 0.0316 µM, first compound 10 µM
[19] = second compound 0.1 µM, first compound 0.0316 µM
[20] = second compound 0.1 µM, first compound 0.1 µM
[21] = second compound 0.1 µM, first compound 0.316 µM
[22] = second compound 0.1 µM, first compound 1 µM
[23] = second compound 0.1 µM, first compound 3.16 µM
[24] = second compound 0.1 µM, first compound 10 µM
[25] = second compound 0.316 µM, first compound 0.0316 µM
[26] = second compound 0.316 µM, first compound 0.1 µM
[27] = second compound 0.316 µM, first compound 0.316 µM
[28] = second compound 0.316 µM, first compound 1 µM
[29] = second compound 0.316 µM, first compound 3.16 µM
[30] = second compound 0.316 µM, first compound 10 µM
[31] = second compound 1 µM, first compound 0.0316 µM
[32] = second compound 1 µM, first compound 0.1 µM
[33] = second compound 1 µM, first compound 0.316 µM
[34] = second compound 1 µM, first compound 1 µM
[35] = second compound 1 µM, first compound 3.16 µM
[36] = second compound 1 µM, first compound 10 µM
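Note: spheroids exposed to compounds for seven days before viability reading.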
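Throughout, for viability, T/C: 100% = DMSO vehicle control viability.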

IC50 (second compound 0.00316 µM): 60.3 nM | IC50 (second compound 0.01 µM): 58.9 nM | IC50 (second compound 0.0316 µM): < 31.6 nM | IC50 (second compound 0.1 µM): < 31.6 nM | IC50 (second compound 0.316 µM): < 31.6 nM | IC50 (second compound 1 µM): < 31.6 nM
SMILES: C#Cc1c(F)ccc2cc(O)cc(-c3ncc4c(N5CC6CCC(C5)N6)nc(OCC56CCCN5CC(F)C6)nc4c3F)c12 (centres undefined) + CC(Nc1ccc2c(c1)OCCn1cc(N3C(=O)OCC3C(F)F)nc1-2)C(N)=O
viability, T/C [1]: 73.4% | viability, T/C [2]: 31.6% | viability, T/C [3]: 16.4% | viability, T/C [4]: 16.3% | viability, T/C [5]: 12.6% | viability, T/C [6]: 8.99% | viability, T/C [7]: 72.2% | viability, T/C [8]: 31.1% | viability, T/C [9]: 15.8% | viability, T/C [10]: 11.8% | viability, T/C [11]: 14% | viability, T/C [12]: 9.85% | viability, T/C [13]: 48.9% | viability, T/C [14]: 23.6% | viability, T/C [15]: 13.1% | viability, T/C [16]: 14.6% | viability, T/C [17]: 7.53% | viability, T/C [18]: 7.66% | viability, T/C [19]: 24.8% | viability, T/C [20]: 9.05% | viability, T/C [21]: 12.4% | viability, T/C [22]: 7.52% | viability, T/C [23]: 6.59% | viability, T/C [24]: 4.7% | viability, T/C [25]: 10.9% | viability, T/C [26]: 7.34% | viability, T/C [27]: 4.32% | viability, T/C [28]: 4.02% | viability, T/C [29]: 4.87% | viability, T/C [30]: 2.61% | viability, T/C [31]: 15.1% | viability, T/C [32]: 8.27% | viability, T/C [33]: 6.04% | viability, T/C [34]: 3.18% | viability, T/C [35]: 3.45% | viability, T/C [36]: 1.57%

IC50 (second compound 0.00316 µM): > 10000 nM | IC50 (second compound 0.01 µM): > 10000 nM | IC50 (second compound 0.0316 µM): > 10000 nM | IC50 (second compound 0.1 µM): > 10000 nM | IC50 (second compound 0.316 µM): 4990 nM | IC50 (second compound 1 µM): < 31.6 nM
SMILES: C=CC(=O)N1CCN(c2nc(=O)n(-c3c(C)ccnc3C(C)C)c3nc(-c4c(O)cccc4F)c(F)cc23)C(C)C1 (centres undefined) + CC(Nc1ccc2c(c1)OCCn1cc(N3C(=O)OCC3C(F)F)nc1-2)C(N)=O
viability, T/C [1]: 109% | viability, T/C [2]: 88.5% | viability, T/C [3]: 94.7% | viability, T/C [4]: 94.9% | viability, T/C [5]: 109% | viability, T/C [6]: 93.9% | viability, T/C [7]: 103% | viability, T/C [8]: 99.4% | viability, T/C [9]: 107% | viability, T/C [10]: 101% | viability, T/C [11]: 103% | viability, T/C [12]: 102% | viability, T/C [13]: 104% | viability, T/C [14]: 102% | viability, T/C [15]: 105% | viability, T/C [16]: 112% | viability, T/C [17]: 115% | viability, T/C [18]: 87.2% | viability, T/C [19]: 103% | viability, T/C [20]: 107% | viability, T/C [21]: 88.3% | viability, T/C [22]: 94.4% | viability, T/C [23]: 86.6% | viability, T/C [24]: 74.4% | viability, T/C [25]: 82.2% | viability, T/C [26]: 74.8% | viability, T/C [27]: 67.7% | viability, T/C [28]: 74.7% | viability, T/C [29]: 56.9% | viability, T/C [30]: 37.4% | viability, T/C [31]: 48.2% | viability, T/C [32]: 50.1% | viability, T/C [33]: 50.9% | viability, T/C [34]: 48.1% | viability, T/C [35]: 32.8% | viability, T/C [36]: 22.9%
